Values of other authors in USRE41148E1, “Oral pulsed dose drug delivery system” (Shire Laboratories, Inc., priority 1998, dated 2010).

What was measured:
[1] = pulsatile capsule, release after nominal 5-hr period, majority of subjects
[2] = wax-surfactant coating level 60%

drug observed in the blood [1]	lag time of drug release [2]	time required for complete release after the lag time [2]	SMILES
no measurable amounts			C[C@H](CS)C(=O)N1CCC[C@H]1C(=O)O [captopril]
	two-hour	three hours	Cn1c(=O)c2[nH]cnc2n(C)c1=O [theophylline]
